pIC50: −log10 of the molar value. Several values for one entry are separate records, joined by “and”; a condition that tells them apart may be missing. Equal values may be shown once. Oligonucleotides are written 5' to 3', each unit as a sugar letter and its base; * is a phosphorothioate linkage, no mark a phosphodiester; rarer units and linkages stand in square brackets, end groups in braces. Plain capitals give the bases only. k = constrained ethyl (cEt); [5mC] = 5-methylcytosine; d = 2'-deoxy (DNA)
Experiments:
[1] = system: AR mRNA; assay: Dose-dependent antisense inhibition of human AR in HuVEC cells (electroporation, qRT-PCR RTS3559, IC50); format: cell-based; settings: HuVEC
Outline: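 HuVEC cells dosed with antisense oligonucleotides by electroporation and treated approximately 16 hours. AR mRNA quantified by real-time qPCR with primer probe set RTS3559 and normalised to total RNA by RIBOGREEN; IC50 from dose-response.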

[2] = system: AR mRNA; assay: Antisense inhibition of human AR in HuVEC cells, single concentration (electroporation, qRT-PCR RTS3559); format: cell-based
Outline: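 HuVEC cells electroporated with antisense oligonucleotides at a single concentration. AR mRNA quantified by qRT-PCR using human primer-probe set RTS3559 and normalised to total RNA content by RIBOGREEN.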

[3] = Table 30, electroporation, approximately 16 hours
[4] = Table 35, electroporation, approximately 16 hours
[5] = Table 24, 1,000 nM oligonucleotide, electroporation, approximately 24 hours, relative to untreated control
[6] = Table 32, electroporation, approximately 16 hours
[7] = Table 20, 500 nM oligonucleotide, electroporation, approximately 24 hours, relative to untreated control
[8] = Table 34, electroporation, approximately 16 hours

## 549414 (kG*kT*kT*d[5mC]*dA*dT*dT*d[5mC]*dG*dA*dA*dG*dT*kT*k[5mC]*kA) [compound 549414]
[1]; 55.6 nM, ~16 h, Table 4
  percent inhibition of AR: 21%
[1]; 166.7 nM, ~16 h, Table 4
  percent inhibition of AR: 35%
[1]; 500.0 nM, ~16 h, Table 4
  percent inhibition of AR: 53%
[1]; 1500.0 nM, ~16 h, Table 4
  percent inhibition of AR: 76%
[1]; ~16 h, Table 4
  pIC50: 6.44
[2]; 500 nM ASO, electroporation, ~24 h, Table 2
  % inhibition: 81%

## 583637 (antisense kA*kT*k[5mC]*dT*d[5mC]*dT*dG*dG*d[5mC]*dT*d[5mC]*d[5mC]*dG*k[5mC]*kA*k[5mC]) [compound 583637]
[1]; [3]
  percent inhibition of AR, 46.9 nM: 22%
  percent inhibition of AR, 187.5 nM: 32%
  percent inhibition of AR, 750.0 nM: 59%
  percent inhibition of AR, 3000.0 nM: 75%
  pIC50: 6.35
[2]; 500 nM ASO, ~24 h, Table 17
  % inhibition: 43%

## 549361 (kG*kA*k[5mC]*dA*d[5mC]*d[5mC]*dG*dA*d[5mC]*dA*d[5mC]*dT*dG*k[5mC]*k[5mC]*kT; antisense) [compound 549361]
[1]; 55.6 nM, ~16 h, Table 3
  percent inhibition of AR: 12%
[1]; 166.7 nM, ~16 h, Table 3
  percent inhibition of AR: 30%
[1]; 500.0 nM, ~16 h, Table 3
  percent inhibition of AR: 52%
[1]; 1500.0 nM, ~16 h, Table 3
  percent inhibition of AR: 66%
[1]; ~16 h, Table 3
  pIC50: 6.28
[2]; 500 nM ASO, electroporation, ~24 h, Table 1
  % inhibition: 84%

## 584148 (k[5mC]*kA*kT*dA*dT*dT*dA*dT*dT*dG*dT*dG*d[5mC]*kT*kG*k[5mC]; antisense) [compound 584148]
[1]; [4]
  percent inhibition of AR, 46.9 nM: 16%
  percent inhibition of AR, 187.5 nM: 48%
  percent inhibition of AR, 750.0 nM: 79%
  percent inhibition of AR, 3000.0 nM: 95%
  pIC50: 6.70
[2]; [5]
  % inhibition: 85%

## 583855 (k[5mC]*k[5mC]*kT*dT*dT*dG*d[5mC]*dA*dT*dT*d[5mC]*dG*dG*k[5mC]*k[5mC]*kA; antisense) [compound 583855]
[1]; [6]
  percent inhibition of AR, 46.9 nM: 22%
  percent inhibition of AR, 187.5 nM: 50%
  percent inhibition of AR, 750.0 nM: 81%
  percent inhibition of AR, 3000.0 nM: 91%
  pIC50: 6.74
[2]; [7]
  % inhibition: 44%

## 583864 (k[5mC]*kA*kG*dT*dG*d[5mC]*dT*d[5mC]*dT*dT*dG*d[5mC]*d[5mC]*kT*kG*k[5mC]; antisense) [compound 583864]
[1]; Table 32, electroporation, approximately 16 hours, 0.1875 µM
  percent inhibition of AR, 187.5 nM: 49% and 47%
[1]; Table 32, electroporation, approximately 16 hours, 0.75 µM
  percent inhibition of AR, 750.0 nM: 72% and 62%
[1]; [6]
  percent inhibition of AR, 3000.0 nM: 85%
[2]; [7]
  % inhibition: 46%

## 584002 (k[5mC]*kT*kG*d[5mC]*dT*d[5mC]*dA*d[5mC]*d[5mC]*dA*dT*dG*d[5mC]*k[5mC]*kG*k[5mC]; antisense) [compound 584002]
[1]; [8]
  percent inhibition of AR, 46.9 nM: 12%
  percent inhibition of AR, 187.5 nM: 46%
  percent inhibition of AR, 750.0 nM: 70%
  percent inhibition of AR, 3000.0 nM: 92%
  pIC50: 6.60
[2]; Table 22, 500 nM oligonucleotide, electroporation, approximately 24 hours, relative to untreated control
  % inhibition: 30%

## 584167 (kG*kA*kG*dT*dG*dT*dT*dA*dA*dT*dG*dA*dA*kG*kA*k[5mC]; antisense) [compound 584167]
[1]; [4]
  percent inhibition of AR, 46.9 nM: 13%
  percent inhibition of AR, 187.5 nM: 45%
  percent inhibition of AR, 750.0 nM: 76%
  percent inhibition of AR, 3000.0 nM: 93%
  pIC50: 6.68
[2]; [5]
  % inhibition: 78%

## 583709 (antisense kG*k[5mC]*kT*dT*dG*dG*d[5mC]*dT*dG*dA*dA*dT*d[5mC]*kT*kT*k[5mC]) [compound 583709]
[1]; [3]
  percent inhibition of AR, 46.9 nM: 8%
  percent inhibition of AR, 187.5 nM: 50%
  percent inhibition of AR, 750.0 nM: 70%
  percent inhibition of AR, 3000.0 nM: 84%
  pIC50: 6.54
[2]; 500 nM ASO, ~24 h, Table 18
  % inhibition: 39%

## 583745 (antisense k[5mC]*kG*k[5mC]*dT*d[5mC]*dG*d[5mC]*dG*dG*d[5mC]*d[5mC]*dT*d[5mC]*kT*kG*kG) [compound 583745]
[1]; [3]
  percent inhibition of AR, 46.9 nM: 19%
  percent inhibition of AR, 187.5 nM: 51%
  percent inhibition of AR, 750.0 nM: 68%
  percent inhibition of AR, 3000.0 nM: 77%
  pIC50: 6.57
[2]; 500 nM ASO, ~24 h, Table 18
  % inhibition: 40%
